Assay results published in the Kinase Knowledgebase extract (Sharma et al. 2016).

Target: MAPK14 (human) (UniProt Q16539)
Experiment: Inhibition of MAPK14 Kinase Activity
Settings: not given

MAPK14 (human), sequence (Q16539 whole entry, looked up): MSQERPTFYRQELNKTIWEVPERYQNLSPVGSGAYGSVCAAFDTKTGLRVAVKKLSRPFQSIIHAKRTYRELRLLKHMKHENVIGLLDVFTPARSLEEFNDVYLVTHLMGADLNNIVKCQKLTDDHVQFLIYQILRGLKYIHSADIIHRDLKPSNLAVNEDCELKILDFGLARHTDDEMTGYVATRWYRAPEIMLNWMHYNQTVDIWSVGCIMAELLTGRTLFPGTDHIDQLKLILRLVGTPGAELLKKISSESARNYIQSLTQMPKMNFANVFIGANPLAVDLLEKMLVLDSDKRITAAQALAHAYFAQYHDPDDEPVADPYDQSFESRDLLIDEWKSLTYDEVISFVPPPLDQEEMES

Row | Compound | IC50 [µM]
1 | CC(C)(C)c1cc(C(=O)N2CCN(CC(N)=O)C(=O)C2(C)CC(N)=O)c(NC(=O)Nc2cccc(Cl)c2Cl)s1 (configuration not stated) | < 5
2 | CC(C)(C)c1cc(C(=O)N2CCNC(=O)C2(C)CCO)c(NC(=O)Nc2cccc(Cl)c2Cl)[nH]1 (configuration not stated) | < 5
3 | CCOC(=O)C(C)(CC)NC(=O)c1cc(C(C)(C)C)sc1NC(=O)Nc1cccc(Cl)c1Cl (configuration not stated) | < 5
4 | CC(C)(C)c1cc(NC(=O)Nc2cccc(Cl)c2Cl)c(C(=O)N2CCN(CC(N)=O)C(=O)C2(C)C)[nH]1 | < 5
5 | CCC1(C)C(=O)N(CC(=O)NCCN(C)C)CCN1C(=O)c1sc(C(C)(C)C)cc1NC(=O)Nc1cccc(Cl)c1Cl (configuration not stated) | < 5
6 | CN(C)CCNC(=O)CN1CCN(C(=O)c2sc(C(C)(C)C)cc2NC(=O)Nc2cccc(Cl)c2Cl)C(C)(C)C1=O | < 5
7 | CN(C)CCN1CCN(C(=O)c2cc(C(C)(C)C)sc2NC(=O)Nc2ccc(F)cc2Cl)CCC1=O | < 5
8 | CONC(=O)CN1CCN(C(=O)c2cc(C(C)(C)C)sc2NC(=O)Nc2cccc(Cl)c2Cl)C(C)(CC(=O)NOC)C1=O (configuration not stated) | < 5
9 | CC(C)(C)c1cc(C(=O)N2CCN(C(=O)CCCC[C@@H]3SC[C@@H]4NC(=O)N[C@@H]43)CC2)c(NC(=O)Nc2cccc(Cl)c2Cl)s1 | < 5
10 | COC(=O)CN1CCN(C(=O)c2nc(C(C)(C)C)sc2NC(=O)Nc2cccc(Cl)c2Cl)C(C)(C)C1=O | < 5
11 | CCC1(C)C(=O)N(CC(=O)NCCN2CCOCC2)CCN1C(=O)c1cc(C(C)(C)C)sc1NC(=O)Nc1cccc(Cl)c1Cl (configuration not stated) | < 5
12 | CCC1(C)C(=O)N(CC(=O)OC)CCN1C(=O)c1cc(C(C)(C)C)sc1NC(=O)Nc1cccc(Cl)c1Cl (configuration not stated) | < 5
13 | CC(C)(C)c1cc(NC(=O)Nc2ccc(F)c(Cl)c2Cl)c(C(=O)N2CCNS(=O)(=O)CC2)[nH]1 | < 5
14 | O=C(Nc1cc(C(F)(F)F)ccc1C(=O)N1CCS(=O)(=O)CC1)Nc1cccc(Cl)c1Cl | < 5
15 | CCC1(C)C(=O)N(CC(=O)NCCN(C)C)CCN1C(=O)c1cc(C(C)(C)C)sc1NC(=O)Nc1ccccc1C(F)(F)F (configuration not stated) | < 5
16 | CC(C)(C)c1cc(C(=O)N2CCN(S(C)(=O)=O)CC2)c(NC(=O)Nc2cccc(Cl)c2Cl)s1 | < 5
17 | CCC1(C)C(=O)N(CC(=O)NCCN(C)C)CCN1C(=O)c1cc(C(C)(C)C)sc1NC(=O)Nc1cccc(Cl)c1Cl (configuration not stated) | < 5
18 | CC(=O)NC1CCCN(C(=O)c2cc(C(C)(C)C)sc2NC(=O)Nc2cccc(Cl)c2Cl)C1 (configuration not stated) | < 5
19 | CC(C)(C)c1cc(C(=O)N2CCNC(=O)CC2)c(NC(=O)Nc2ccccc2C(F)(F)F)s1 | < 5
20 | CC(C)(C)c1cc(C(=O)N2CCCC(O)C2)c(NC(=O)Nc2cccc(Cl)c2Cl)s1 (configuration not stated) | < 5
21 | CN(C)CCNC(=O)CN1CCN(C(=O)c2cc(C(C)(C)C)[nH]c2NC(=O)Nc2cccc(Cl)c2Cl)C(C)(C)C1=O | < 5
22 | CN(C)C(=O)N1CCN(C(=O)c2cc(C(C)(C)C)sc2NC(=O)Nc2cccc(Cl)c2Cl)CC1 | < 5
23 | COC(=O)CC1(C)C(=O)NCCN1C(=O)c1[nH]c(C(C)(C)C)cc1NC(=O)Nc1ccc(F)c(Cl)c1Cl (configuration not stated) | < 5
24 | CN(C)CCN1CCN(C(=O)c2oc(C(C)(C)C)cc2NC(=O)Nc2cccc(Cl)c2Cl)CCS1(=O)=O | < 5
25 | CON(C)C(=O)CN1CCN(C(=O)c2[nH]c(C(C)(C)C)cc2NC(=O)Nc2cccc(Cl)c2Cl)C(C)(C)C1=O | < 5
26 | CCC1(C)C(=O)N(CC(=O)NCCN(C)C)CCN1C(=O)c1cc(C(C)(C)C)sc1NC(=O)Nc1ccc(F)c(Cl)c1Cl (configuration not stated) | < 5
27 | CN(C)CCCNC(=O)CN1CCN(C(=O)c2cc(C(C)(C)C)sc2NC(=O)Nc2cccc(Cl)c2Cl)C(C)(C)C1=O | < 5
28 | CON(C)C(=O)CN1CCN(C(=O)c2cc(C(C)(C)C)sc2NC(=O)Nc2ccc(F)c(F)c2Cl)CCC1=O | < 5
29 | CC(C)(C)c1cc(NC(=O)Nc2cccc(Cl)c2Cl)c(C(=O)N2CCNS(=O)(=O)CC2)o1 | < 5

The remaining lines, values ahead:

Row | IC50 [µM] | Compound
30 | < 5 | CC(C)(C)c1cc(C(=O)N2CCNC(=O)C2CC(N)=O)c(NC(=O)Nc2cccc(Cl)c2Cl)s1 (configuration not stated)
31 | < 5 | Cn1c(C(C)(C)C)cc(NC(=O)Nc2cccc(Cl)c2Cl)c1C(=O)N1CCNC(=O)C1(C)C
32 | < 5 | CN(C)CCN1CCN(C(=O)c2cc(C(C)(C)C)sc2NC(=O)Nc2ccncc2Cl)C(C)(C)C1=O
33 | < 5 | CN(C)CCN1CCN(C(=O)c2cc(C(C)(C)C)sc2NC(=O)Nc2ccc(F)cc2Cl)C(C)(C)C1=O
34 | < 5 | CC(C)(C)c1cc(C(=O)N2CCNC(=O)C2(C)C)c(NC(=O)Nc2cccc3ccccc23)s1
35 | < 5 | CC(C)(C)c1cc(C(=O)N2CCNC(=O)C23CCCC3)c(NC(=O)Nc2cccc(Cl)c2Cl)s1
36 | < 5 | CC(C)(C)c1cc(C(=O)N2CCN(CC(=O)O)C(=O)C2(C)C)c(NC(=O)Nc2cccc(Cl)c2Cl)s1
37 | < 5 | CC(C)(C)c1cc(C(=O)N2CCNC(=O)C2(C)C)c(NC(=O)Nc2ccc3c(c2Cl)OCO3)s1
38 | < 5 | CCc1ccccc1NC(=O)Nc1sc(C(C)(C)C)cc1C(=O)N1CCNC(=O)CC1
39 | < 5 | CC(C)(C)c1cc(C(=O)N2CCNC(=O)CC2)c(NC(=O)Nc2ccccc2Cl)s1
40 | < 5 | CC(C)(C)c1cc(C(=O)N2CCNC(=O)CC2)c(NC(=O)Nc2ccc(Cl)c(Cl)c2Cl)s1
41 | < 5 | Cc1noc(CN2CCN(C(=O)c3cc(C(C)(C)C)sc3NC(=O)Nc3cccc(Cl)c3Cl)C(C)(C)C2=O)n1
42 | < 5 | CC(C)(C)c1cc(C(=O)N2CCNC(=O)C2)c(NC(=O)Nc2ccc3c(c2)OCO3)s1
43 | < 5 | CC(C)(C)c1cc(C(=O)N2CCNC(=O)CC2)c(NC(=O)Nc2ccc(O)c(Cl)c2Cl)s1
44 | < 5 | CC1(C)OCC(CN2CCN(C(=O)c3cc(C(C)(C)C)sc3NC(=O)Nc3cccc(Cl)c3Cl)C(C)(C)C2=O)O1 (configuration not stated)
45 | < 5 | CCC1C(=O)NCCN1C(=O)c1cc(C(C)(C)C)sc1NC(=O)Nc1ccc(F)c(Cl)c1Cl (configuration not stated)
46 | < 5 | CC(C)(C)c1cc(C(=O)N2CCS(=O)(=O)CC2)c(NC(=O)Nc2ccc3c(c2Cl)OCO3)s1
47 | < 5 | COC(=O)c1ccc(NC(=O)Nc2cc(C(C)(C)C)sc2C(=O)N2CCNC(=O)C2(C)C)c(Cl)c1
48 | < 5 | CC(C)(C)c1cc(C(=O)N2CCNC(=O)C2(C)C)c(NC(=O)Nc2ccc(C#N)c3ccccc23)s1
49 | < 5 | COc1cccc(NC(=O)Nc2sc(C(C)(C)C)cc2C(=O)N2CCN(CCN(C)C)C(=O)C2(C)C)c1Cl
50 | < 5 | CC(C)(C)c1cc(C(=O)N2CCNC(=O)C2(C)C)c(NC(=O)Nc2ccc(OC(F)F)c(Cl)c2Cl)s1
51 | < 5 | CC(C)(C)c1cc(C(=O)N2CCS(=O)(=O)CC2)c(NC(=O)Nc2cccc3c2OCO3)s1

Row | IC50 [µM] | Compound
52 | < 5 | CCC1(C)C(=O)N(C)CCN1C(=O)c1cc(C(C)(C)C)sc1NC(=O)Nc1cccc(Cl)c1Cl (configuration not stated)
53 | < 5 | CC(C)(C)c1cc(C(=O)N2CCNC(=O)CC2)c(NC(=O)Nc2ccc(F)c(F)c2Cl)s1
54 | < 5 | CC(C)(C)c1cc(C(=O)N2CCNC(=O)CC2)c(NC(=O)Nc2cccnc2Cl)s1
55 | < 5 | Cc1ccccc1NC(=O)Nc1sc(C(C)(C)C)cc1C(=O)N1CCNC(=O)C1(C)C
56 | < 5 | CC(C)(C)c1cc(C(=O)N2CCNC(=O)CC2)c(NC(=O)Nc2ccc3c(c2Cl)OCO3)s1
57 | < 5 | CC(C)(C)c1nc(C(=O)N2CCNC(=O)C2(C)C)c(NC(=O)Nc2cccc(Cl)c2Cl)s1
58 | < 5 | CON(C)C(=O)CN1CCN(C(=O)c2cc(C(C)(C)C)sc2NC(=O)Nc2ccc(F)cc2Cl)C(C)(C)C1=O
59 | < 5 | COC(=O)CN1CCN(C(=O)c2cc(C(C)(C)C)sc2NC(=O)Nc2ccc(F)c(Cl)c2Cl)C(C)(C)C1=O
60 | < 5 | Cc1ccccc1NC(=O)Nc1sc(C(C)(C)C)cc1C(=O)N1CCNC(=O)CC1
61 | < 5 | CCC(C)(C)c1cc(NC(=O)Nc2cccc(Cl)c2Cl)c(C(=O)N2CCNC(=O)C2(C)C)[nH]1
62 | < 5 | CONC(=O)CC1(C)C(=O)NCCN1C(=O)c1cc(C(C)(C)C)sc1NC(=O)Nc1ccc(F)c(Cl)c1Cl (configuration not stated)
63 | < 5 | COc1ccccc1NC(=O)Nc1sc(C(C)(C)C)cc1C(=O)N1CCN(CCN(C)C)C(=O)C1(C)C
64 | < 5 | CN(C)CCNC(=O)CN1CCN(C(=O)c2cc(C(C)(C)C)sc2NC(=O)Nc2ccc(F)cc2Cl)C(C)(C)C1=O
65 | < 5 | CC(C)(C)c1cc(C(=O)N2CCN(CC(=O)NO)C(=O)C2(C)C)c(NC(=O)Nc2ccc(F)c(Cl)c2Cl)s1
66 | < 5 | CC(C)(C)c1cc(C(=O)N2CCNC(=O)C2(C)CC(N)=O)c(NC(=O)Nc2ccc(F)c(Cl)c2Cl)s1 (configuration not stated)
67 | < 5 | CC(C)(C)c1cc(C(=O)N2CCNC(=O)C2(C)CC(N)=O)c(NC(=O)Nc2cccc(Cl)c2Cl)s1 (configuration not stated)
68 | < 5 | Cc1c(F)cccc1NC(=O)Nc1sc(C(C)(C)C)cc1C(=O)N1CCNC(=O)C1(C)CCO (configuration not stated)
69 | < 5 | CN(C)CCN1CCN(C(=O)c2cc(C(C)(C)C)sc2NC(=O)Nc2cccc(Cl)c2Cl)CC(C)(C)C1=O
70 | < 5 | Cc1noc(CC2(C)C(=O)NCCN2C(=O)c2cc(C(C)(C)C)sc2NC(=O)Nc2ccc(F)c(Cl)c2Cl)n1 (configuration not stated)
71 | < 5 | Cc1ccccc1NC(=O)Nc1sc(C(C)(C)C)cc1C(=O)N1CCN(CCN(C)C)C(=O)C1(C)C
72 | < 5 | CC(C)(C)c1cc(C(=O)N2CCN(CC(O)CO)C(=O)C2(C)C)c(NC(=O)Nc2cccc(Cl)c2Cl)s1 (configuration not stated)

Same assay, conditions: concentration not given here

Row | inhibition [%] | Compound
73 | 76 to 100 | Cc1cccc(NC(=O)Nc2sc(C(C)(C)C)cc2C(=O)N2CCNC(=O)CC2)c1
74 | 76 to 100 | CC(C)(C)c1cc(C(=O)N2CCC(=O)N(CCC(N)=O)CC2)c(NC(=O)Nc2cccc(Cl)c2Cl)s1
75 | 26 to 50 | CC(C)(C)c1cc(C(=O)N2CCNS(=O)(=O)CC2)c(NC(=O)NC2(c3ccccc3)CC2)s1
76 | 76 to 100 | CC(C)(C)c1cc(C(=O)N2CCNC(=O)C2)c(NC(=O)Nc2cccc3ccccc23)s1
77 | 76 to 100 | CC(C)(C)c1cc(C(=O)N2CCNS(=O)(=O)CC2)c(NC(=O)Nc2ccc(C#N)cc2C(F)(F)F)s1
78 | 76 to 100 | COCCOCCN1CCN(C(=O)c2cc(C(C)(C)C)sc2NC(=O)Nc2cccc(Cl)c2Cl)CCC1=O
79 | 76 to 100 | CC(C)(C)c1cc(NC(=O)Nc2ccc(Cl)c(Cl)c2)c(C(=O)N2CCNC(=O)CC2)s1
80 | 76 to 100 | COCCN1CCN(C(=O)c2cc(C(C)(C)C)sc2NC(=O)Nc2cccc(Cl)c2Cl)CCC1=O

Row | Compound | inhibition [%]
81 | CC(C)(C)c1cc(C(=O)N2CCNC(=O)CC2)c(NC(=O)Nc2ccc(C#N)c(Cl)c2)s1 | 76 to 100
82 | CC(C)(C)c1cc(C(=O)N2CCNS(=O)(=O)CC2)c(NC(=O)Nc2ccc(C#N)c(Cl)c2)s1 | 76 to 100
